Values quoted from earlier work in patent US12059317B2, “Multi-phase oral care compositions” (The Procter & Gamble Company, priority 2019, dated 2024).
Where two headings read alike, the source gives them in different places.

Conditions: for Solubility in Water (number of parts by weight per 100 parts by weight of water): hydrophilic bleaching agent particle of the composition, PVP complex value estimated from supplier data sheet on PVP K-30

Solubility in water (footnote values from supplier data sheets / Wikipedia): 80 parts per 100 parts of water | Solubility in Water (number of parts by weight per 100 parts by weight of water) (listed as urea peroxide): 80 parts by weight per 100 parts
SMILES: NC(N)=O.OO [Urea Peroxide, Urea Hydrogen Peroxide Adduct]
Solubility in water (at 20 C, per Safety Data Sheet from supplier): 800 grams per liter | Solubility in Water (number of parts by weight per 100 parts by weight of water): 80 parts by weight per 100 parts by weight of water
